Test results reported in PMC9214071 (Acta Pharmaceutica Sinica. B, 2022).
Values joined by “and” are separate entries in the source; they are usually repeats but may differ in a detail not shown here. Equal entries are not always repeated. Where two headings read alike, the source gives them in different places. Marks after values point to notes of the source that are not given here.

Tests used:
PAK4 [1] = biological target: T1, PAK4 (Homo sapiens, UniProt O96013); experiment: PAK4 HTRF assay; type: biochemical; conditions: for LE: Ligand efficiency = (−1.4 Log Ki)/(n heavy atoms); for LE / LLE / Ki: PAK4 Ki; for LLE: Ligand lipophilicity efficiency = (−Log Ki) − (cLogP); for Ki: HTRF, average of two independent experiments
PAK1 = PAK1 (Homo sapiens, UniProt Q13153); experiment: PAK1 FRET-based Z'-Lyte assay; type: biochemical
PAK4 [2] = biological target: T1, PAK4; conditions: read-out: PAK4 Ki (reported); cited from earlier work
A549 = experiment: Wound-healing assay, A549 cell migration; type: cell-based, human; conditions: 20 μmol/L
in vitro = conditions: CD-1, mouse, mouse liver microsomes, pH 7.4
[3] = Liver microsomal stability assay, MLM
[4] = at least two duplicate experiments, SEM < ±20%

Chain of PAK1 (Q13153 whole entry): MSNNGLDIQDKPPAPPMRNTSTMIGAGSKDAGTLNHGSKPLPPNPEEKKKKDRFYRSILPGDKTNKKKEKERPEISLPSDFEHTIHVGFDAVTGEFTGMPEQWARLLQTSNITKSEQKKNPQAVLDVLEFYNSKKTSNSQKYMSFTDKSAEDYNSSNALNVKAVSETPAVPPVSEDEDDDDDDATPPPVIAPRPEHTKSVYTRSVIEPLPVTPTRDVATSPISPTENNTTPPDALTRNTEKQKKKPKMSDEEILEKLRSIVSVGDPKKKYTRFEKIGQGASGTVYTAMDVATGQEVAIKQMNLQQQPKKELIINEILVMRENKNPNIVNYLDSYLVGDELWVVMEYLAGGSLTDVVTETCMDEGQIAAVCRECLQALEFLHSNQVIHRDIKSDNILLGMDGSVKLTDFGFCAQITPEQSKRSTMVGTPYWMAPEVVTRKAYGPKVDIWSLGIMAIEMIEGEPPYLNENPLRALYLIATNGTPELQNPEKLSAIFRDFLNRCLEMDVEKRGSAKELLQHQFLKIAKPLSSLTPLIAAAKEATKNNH
T1 sequence (O96013 whole entry): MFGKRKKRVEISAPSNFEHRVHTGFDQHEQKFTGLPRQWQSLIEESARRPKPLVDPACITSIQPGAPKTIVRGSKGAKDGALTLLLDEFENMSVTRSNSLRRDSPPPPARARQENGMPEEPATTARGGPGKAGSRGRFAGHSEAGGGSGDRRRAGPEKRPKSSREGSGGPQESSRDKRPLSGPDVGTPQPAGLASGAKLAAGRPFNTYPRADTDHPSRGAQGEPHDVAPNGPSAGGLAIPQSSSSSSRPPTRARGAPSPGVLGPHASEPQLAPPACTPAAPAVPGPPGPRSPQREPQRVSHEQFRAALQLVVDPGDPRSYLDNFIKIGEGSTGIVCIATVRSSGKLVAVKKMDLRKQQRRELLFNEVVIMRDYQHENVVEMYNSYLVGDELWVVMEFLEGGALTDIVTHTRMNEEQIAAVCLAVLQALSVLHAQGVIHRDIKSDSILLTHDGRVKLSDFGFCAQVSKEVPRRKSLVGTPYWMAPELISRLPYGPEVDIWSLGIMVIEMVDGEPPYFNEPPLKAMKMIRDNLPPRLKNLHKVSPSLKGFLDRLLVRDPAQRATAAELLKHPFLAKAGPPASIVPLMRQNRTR

SMILES	LE (PAK4 [1])	Ki (PAK4 [1])	further results
Nc1nccc(-n2cc(C(=O)N3CC[C@@H](N)C3)c3ccc(C#CC4(O)CCCCC4)cc32)n1 [Compound 51]	0.31	25.5 nM	LLE (PAK4 [1]): 4.42; Ki (PAK1; [4]): 6340 nM
Nc1nccc(-n2ccc3ccc(C#CC4(O)CCCCC4)cc32)n1 [Compound 5]	0.39	66 nM	–
CN1CCN(C(=O)c2cn(-c3ccnc(N)n3)c3cc(C#CC4(O)CCCCC4)ccc23)CC1 [Compound 38]	–	38 nM	–
OC1(C#Cc2ccc3ccn(-c4ccnc(Nc5ccccc5C(F)(F)F)n4)c3c2)CCCCC1 [Compound 21]	–	173 nM	–
CC(C)Nc1nccc(-n2ccc3ccc(C#CC4(O)CCCCC4)cc32)n1 [Compound 29]	–	1110 nM	–
COc1ccc(Nc2nccc(-n3ccc4ccc(C#CC5(O)CCCCC5)cc43)n2)cc1 [Compound 24]	–	298 nM	–
Nc1nccc(-n2cc(C(=O)N3CCC(N)CC3)c3ccc(C#CC4(O)CCCCC4)cc32)n1 [Compound 43]	0.29	42.6 nM	LLE (PAK4 [1]): 4.16; Ki (PAK1; [4]): 1610 nM
Nc1nccc(-n2cc(C(=O)N3CCOCC3)c3ccc(C#CC4(O)CCCCC4)cc32)n1 [Compound 37]	–	119 nM	–
OC1(C#Cc2ccc3ccn(-c4ccnc(Nc5ccccc5)n4)c3c2)CCCCC1 [Compound 15]	–	217 nM	–
Cc1ccccc1Nc1nccc(-n2ccc3ccc(C#CC4(O)CCCCC4)cc32)n1 [Compound 22]	–	709 nM	–
Nc1nccc(-n2cc(C(=O)NCc3ccccc3)c3ccc(C#CC4(O)CCCCC4)cc32)n1 [Compound 30]	–	593 nM	–
Nc1nccc(-n2cc(C(=O)N[C@H]3CCNC3)c3ccc(C#CC4(O)CCCCC4)cc32)n1 [Compound 50]	0.31	27.2 nM	LLE (PAK4 [1]): 4.40
OC1(C#Cc2ccc3ccn(-c4ccnc(NCc5ccccc5Cl)n4)c3c2)CCCCC1 [Compound 12]	–	355 nM	–
O=[N+]([O-])c1cccc(Nc2nccc(-n3ccc4ccc(C#CC5(O)CCCCC5)cc43)n2)c1 [Compound 17]	–	157 nM	–
Nc1ccn(C(=O)c2cn(-c3ccnc(N)n3)c3cc(C#CC4(O)CCCCC4)ccc23)n1 [Compound 34]	–	94 nM	–
COCCNc1nc2ccc(C#CC3(O)CCCCC3)cc2n1-c1ccnc(N)n1 [GNE-2861, reference compound]	–	35 nM and 35.3 nM	Ki (PAK1; [4]): 3130 nM; Ki (PAK4 [2]): 3 nM
Nc1cc(-n2ccc3ccc(C#CC4(O)CCCCC4)cc32)ncn1 [Compound 5c]	0.36	229 nM	–
COCCNc1nccc(-n2ccc3ccc(C#CC4(O)CCCCC4)cc32)n1 [Compound 28]	–	680 nM	–
Nc1nccc(-n2cc(C(=O)N3CCNCC3)c3ccc(C#CC4(O)CCCCC4)cc32)n1 [Compound 42]	0.35	6.6 nM	LLE (PAK4 [1]): 4.97; fold increase of inhibitory capacity compared to 37 (PAK4 [1]; PAK4, relative to 37): 18 fold; Ki (PAK1; [4]): 4990 nM; A549, effect of compounds on the cell mobility (A549): 65% ^h
CN(C)C(=O)c1cn(-c2ccnc(N)n2)c2cc(C#CC3(O)CCCCC3)ccc12 [Compound 39]	–	82 nM	–
Nc1nccc(-n2cc(C(=O)N[C@@H]3CCNC3)c3ccc(C#CC4(O)CCCCC4)cc32)n1 [Compound 52]	0.31	30.9 nM	LLE (PAK4 [1]): 5.48
Nc1nccc(-n2ccc3cc(F)c(C#CC4(O)CCCCC4)cc32)n1 [Compound 5a]	0.38	82 nM	–
Cc1cccc(Nc2nccc(-n3ccc4ccc(C#CC5(O)CCCCC5)cc43)n2)c1 [Compound 19]	–	212 nM	–
Nc1nccc(-n2ccc3ccc(C#CC4(O)CCCCC4)nc32)n1 [Compound 9]	0.36	183 nM	–
Nc1nccc(-n2ccc3cnc(C#CC4(O)CCCCC4)cc32)n1 [Compound 8]	0.42	13 nM	–
NC(=O)c1cn(-c2ccnc(N)n2)c2cc(C#CC3(O)CCCCC3)ccc12 [Compound 41]	–	14 nM	half-life at 1 μmol/L (in vitro): 23.7 min; liver clearance [3]: 105.5 mL/min/kg

SMILES	LE (PAK4 [1])	Ki (PAK4 [1])	further results
OC1(C#Cc2ccc3ccn(-c4ccnc(Nc5ccc(F)c(Cl)c5)n4)c3c2)CCCCC1 [Compound 25]	–	189 nM	–
Nc1nccc(-n2cc(C(=O)N3CCC[C@H](N)C3)c3ccc(C#CC4(O)CCCCC4)cc32)n1 [Compound 45, (S)-(3-Aminopiperidin-1-yl) (1-(2-aminopyrimidin-4-yl)-6-((1-hydroxycyclohexyl)ethynyl)-1H-indol-3-yl)methanone]	0.30	25.6 nM	LLE (PAK4 [1]): 4.80; Ki (PAK1; [4]): 2370 nM
OC1(C#Cc2ccc3ccn(-c4ccnc(NCc5ccc(F)cc5)n4)c3c2)CCCCC1 [Compound 13]	–	291 nM	–
CNC(=O)c1cn(-c2ccnc(N)n2)c2cc(C#CC3(O)CCCCC3)ccc12 [Compound 40]	–	44 nM	–
Nc1nccc(-n2cc(C(=O)Nc3ccccc3)c3ccc(C#CC4(O)CCCCC4)cc32)n1 [Compound 31]	–	804 nM	–
Nc1nccc(-n2cc(C(=O)N3CCNC(=O)C3)c3ccc(C#CC4(O)CCCCC4)cc32)n1 [Compound 56, 4-(1-(2-Aminopyrimidin-4-yl)-6-((1-hydroxycyclohexyl)ethynyl)-1H-indole-3-carbonyl)piperazin-2-one]	0.31	18.1 nM	LLE (PAK4 [1]): 5.17; Ki (PAK1; [4]): 4990 nM
Nc1nccc(-n2cc(C(=O)N[C@@H]3CCCNC3)c3ccc(C#CC4(O)CCCCC4)cc32)n1 [Compound 48]	0.33	5.6 nM	LLE (PAK4 [1]): 5.42; Ki (PAK1; [4]): 7130 nM
Nc1nccc(-n2cc(C(=O)N3CCC[C@@H](N)C3)c3ccc(C#CC4(O)CCCCC4)cc32)n1 [Compound 47]	0.34	3.4 nM	IC50 (PAK4 [1]): 6.3 nM; LLE (PAK4 [1]): 5.65; Ki (PAK1): 6990 nM; Ki (PAK1; [4]): 6990 nM
Nc1nccc(-n2ccc3ncc(C#CC4(O)CCCCC4)cc32)n1 [Compound 7]	0.40	36 nM	–
Nc1cc(-n2ccc3ccc(C#CC4(O)CCCCC4)cc32)nc(N)n1 [Compound 5b]	0.33	370 nM	–
Nc1nccc(-n2cc(C(=O)Nc3nccs3)c3ccc(C#CC4(O)CCCCC4)cc32)n1 [Compound 32]	–	243 nM	–
N#Cc1cccc(Nc2nccc(-n3ccc4ccc(C#CC5(O)CCCCC5)cc43)n2)c1 [Compound 18]	–	242 nM	–
C[C@@H]1CN(C(=O)c2cn(-c3ccnc(N)n3)c3cc(C#CC4(O)CCCCC4)ccc23)CCN1 [Compound 54]	0.27	148 nM	LLE (PAK4 [1]): 3.53; fold less potency than 55 against PAK4 (PAK4 [1]; relative to 55): approximately 14 fold
OC1(C#Cc2ccc3ccn(-c4ccnc(NCc5ccccc5F)n4)c3c2)CCCCC1 [Compound 11]	–	223 nM	–
Nc1nccc(-n2ncc3ccc(C#CC4(O)CCCCC4)cc32)n1 [Compound 6]	0.40	40 nM	–
Nc1nccc(-n2cc(C(=O)NC3CCNCC3)c3ccc(C#CC4(O)CCCCC4)cc32)n1 [Compound 44]	0.32	8.3 nM	LLE (PAK4 [1]): 5.28; Ki (PAK1; [4]): 4240 nM
Cc1cnc(N)nc1-n1ccc2ccc(C#CC3(O)CCCCC3)cc21 [Compound 5d]	0.35	182 nM	–
Nc1nccc(-n2cc(C(=O)Nc3cc(O)[nH]n3)c3ccc(C#CC4(O)CCCCC4)cc32)n1 [Compound 35]	–	376 nM	–
Nc1nccc(-n2cc(C(=O)N3CCC[C@@H](O)C3)c3ccc(C#CC4(O)CCCCC4)cc32)n1 [Compound 49]	0.27	207 nM	LLE (PAK4 [1]): 4.12; factor of reduced activity relative to 47 (PAK4 [1]; PAK4, relative to 47): 60
OC1(C#Cc2ccc3ccn(-c4ccnc(NCc5cccs5)n4)c3c2)CCCCC1 [Compound 14]	–	7450 nM	–
Nc1nccc(-n2cc(C(=O)N3CC[C@H](N)C3)c3ccc(C#CC4(O)CCCCC4)cc32)n1 [Compound 53]	0.31	22.7 nM	LLE (PAK4 [1]): 4.47; Ki (PAK1; [4]): 2870 nM
OC1(C#Cc2ccc3ccn(-c4ccnc(Nc5cccc(Cl)c5)n4)c3c2)CCCCC1 [Compound 16]	–	105 nM	–
NS(=O)(=O)c1cccc(Nc2nccc(-n3ccc4ccc(C#CC5(O)CCCCC5)cc43)n2)c1 [Compound 26]	–	83 nM	–
Nc1nccc(-n2cc(C(=O)Nc3cc[nH]n3)c3ccc(C#CC4(O)CCCCC4)cc32)n1 [Compound 33]	–	239 nM	–
OC1(C#Cc2ccc3ccn(-c4ccnc(NCc5ccccc5)n4)c3c2)CCCCC1 [Compound 10]	–	623 nM	–
OC1(C#Cc2ccc3ccn(-c4ccnc(Nc5ccccc5F)n4)c3c2)CCCCC1 [Compound 20]	–	396 nM	–
